Test results published in US10357493B2, “Metalloenzyme inhibitor compounds” (Selenity Therapeutics (Bermuda), Ltd., priority 2017, dated 2019).

Experiments:
HDAC6 = HDAC6 (Homo sapiens (Human), UniProt Q9UBN7); test: HDAC6 enzymatic assay; assay type: biochemical; conditions: read-out: Human HDAC6 IC50
Method: (§1) All enzymatic reactions were conducted in duplicate at room temperature for 17 hours in a 50 μl mixture containing HDAC assay buffer (50 mM Tris-HCl, pH 7.4, 137 mM NaCl, 2.7 mM KCl, 0.05% Tween 20, 5 μg BSA), an HDAC substrate, an HDAC enzyme, and a test compound. Compound dilution was prepared ten-fold higher than the final concentration of the compounds with 10% DMSO in HDAC assay buffer and 5 μl of the dilution was added to a 50 μl reaction so that the final concentration of DMSO is 1% in all of reactions. After enzymatic reactions, 50 μl of HDAC Developer was added to each well and the plate was incubated at room temperature for an additional 20 minutes. Fluorescence intensity was measured at an excitation of 360 nm and an emission of 460 nm using a Tecan Infinite M1000 or Biotek Synergy microplate reader.
(§2) The fluorescent intensity data were analyzed using the computer software, Graphpad Prism. In the absence of the compound, the fluorescent intensity (Ft) in each data set was defined as 100% activity. In the absence of HDAC, the fluorescent intensity (Fb) in each data set was defined as 0% activity. The percent activity in the presence of each compound was calculated according to the following equation: % activity=(F−Fb)/(Ft−Fb), where F=the fluorescent intensity in the presence of the compound.
(§3) The values of % activity versus a series of compound concentrations were then plotted using non-linear regression analysis of Sigmoidal dose-response curve generated with the equation Y=B+(T−B)/1+10((Log EC50−X)×Hill Slope), where Y=percent activity, B=minimum percent activity, T=maximum percent activity, X=logarithm of compound and Hill Slope=slope factor or Hill coefficient. The IC50 value was determined by the concentration causing a half-maximal percent activity.
(§4) HDAC1 enzymatic assays contained 0.5 ng HDAC1 and 10 uM of HDAC substrate. HDAC2 enzymatic assays contained 0.5 ng HDAC2 and 10 uM of HDAC substrate. HDAC3 enzymatic assays contained 0.4 ng HDAC3/NCOR2 and 10 uM of HDAC substrate. HDAC4 enzymatic assays contained 0.02 ng HDAC4 and 2 uM of HDAC substrate. HDAC5 enzymatic assays contained 0.5 ng HDAC5 and 2 uM of HDAC substrate. HDAC6 enzymatic assays contained 2 ng HDAC6 and 10 uM of HDAC substrate. HDAC7 enzymatic assays contained 0.05 ng HDAC7 and 2 uM of HDAC substrate. HDAC8 enzymatic assays contained 5 ng HDAC8 and 2 uM of HDAC substrate. HDAC9 enzymatic assays contained 1 ng HDAC9 and 2 uM of HDAC substrate. HDAC10 enzymatic assays contained 75 ng HDAC10 and 10 uM of HDAC substrate. HDAC11 enzymatic assays contained 5 ng HDAC11 and 2 uM of HDAC substrate.

HDAC1 = HDAC1 (Homo sapiens (Human), UniProt Q13547); test: HDAC1 enzymatic assay; assay type: biochemical; conditions: read-out: Human HDAC1 IC50
Method: as §1, §2, §3, §4

HDAC1, sequence (Q13547 whole entry): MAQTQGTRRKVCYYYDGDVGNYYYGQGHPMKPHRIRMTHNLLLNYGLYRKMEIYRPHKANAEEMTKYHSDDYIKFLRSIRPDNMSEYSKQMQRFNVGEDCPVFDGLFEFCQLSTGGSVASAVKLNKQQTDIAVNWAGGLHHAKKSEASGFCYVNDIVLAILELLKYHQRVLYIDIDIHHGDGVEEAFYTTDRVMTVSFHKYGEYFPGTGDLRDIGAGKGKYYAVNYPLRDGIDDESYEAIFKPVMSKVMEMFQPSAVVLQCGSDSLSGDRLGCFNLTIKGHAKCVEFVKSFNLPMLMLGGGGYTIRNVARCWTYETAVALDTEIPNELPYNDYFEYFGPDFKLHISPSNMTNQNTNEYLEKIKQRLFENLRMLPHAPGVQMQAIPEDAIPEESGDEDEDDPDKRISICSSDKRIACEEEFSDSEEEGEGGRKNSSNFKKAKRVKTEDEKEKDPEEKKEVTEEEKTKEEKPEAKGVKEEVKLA
HDAC6, sequence (Q9UBN7 whole entry): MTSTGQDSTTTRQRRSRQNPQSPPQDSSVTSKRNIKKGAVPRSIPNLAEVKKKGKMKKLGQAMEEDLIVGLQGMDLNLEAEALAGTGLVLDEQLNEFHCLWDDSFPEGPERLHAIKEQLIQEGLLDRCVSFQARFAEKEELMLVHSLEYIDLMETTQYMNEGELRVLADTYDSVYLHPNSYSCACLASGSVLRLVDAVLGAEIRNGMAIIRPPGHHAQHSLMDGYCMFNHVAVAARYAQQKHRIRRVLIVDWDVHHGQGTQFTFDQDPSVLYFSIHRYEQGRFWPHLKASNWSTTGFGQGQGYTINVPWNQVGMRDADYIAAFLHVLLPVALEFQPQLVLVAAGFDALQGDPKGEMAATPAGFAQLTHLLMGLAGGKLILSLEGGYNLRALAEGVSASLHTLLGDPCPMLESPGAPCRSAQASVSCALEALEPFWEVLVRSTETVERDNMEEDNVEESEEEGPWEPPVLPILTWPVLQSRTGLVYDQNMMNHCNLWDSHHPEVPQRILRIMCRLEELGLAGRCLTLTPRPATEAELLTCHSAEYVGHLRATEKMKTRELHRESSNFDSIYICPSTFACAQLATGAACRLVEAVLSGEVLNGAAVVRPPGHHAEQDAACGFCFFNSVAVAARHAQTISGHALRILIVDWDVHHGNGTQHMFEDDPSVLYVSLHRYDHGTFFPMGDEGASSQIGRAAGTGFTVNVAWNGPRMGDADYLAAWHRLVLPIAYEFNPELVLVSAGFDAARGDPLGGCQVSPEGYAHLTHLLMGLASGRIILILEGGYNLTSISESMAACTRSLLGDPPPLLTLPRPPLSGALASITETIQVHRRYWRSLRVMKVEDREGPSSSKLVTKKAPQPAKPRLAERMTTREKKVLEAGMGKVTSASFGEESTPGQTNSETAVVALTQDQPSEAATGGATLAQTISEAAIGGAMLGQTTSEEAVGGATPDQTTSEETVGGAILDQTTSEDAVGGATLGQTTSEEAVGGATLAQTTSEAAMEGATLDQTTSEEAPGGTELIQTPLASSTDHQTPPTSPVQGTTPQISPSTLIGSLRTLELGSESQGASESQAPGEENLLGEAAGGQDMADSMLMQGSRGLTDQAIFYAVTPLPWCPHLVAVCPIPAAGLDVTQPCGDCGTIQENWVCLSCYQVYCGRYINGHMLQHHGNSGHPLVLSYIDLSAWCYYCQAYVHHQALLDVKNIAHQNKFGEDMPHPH

Compound | IC50 (HDAC6) [nM] | IC50 (HDAC1) [nM]
CCS(=O)(=O)N(CC(Nc1ncc(-c2nnc(C(F)F)o2)cn1)c1ccc(F)cc1)CC(F)(F)F (single isomer, unassigned) [164(−), N-(2-((5-(5-(difluoromethyl)-1,3,4-oxadiazol-2-yl)pyrimidin-2-yl)amino)-2-(4-fluorophenyl)ethyl)-N-(2,2,2-trifluoroethyl)ethanesulfonamide] | 230 | > 30000
CC(=O)N(C)CC(Nc1ncc(-c2nnc(C(F)F)o2)cn1)c1ccc(F)cc1 (single isomer, unassigned) [166(−), N-(2-((5-(5-(difluoromethyl)-1,3,4-oxadiazol-2-yl)pyrimidin-2-yl)amino)-2-(4-fluorophenyl)ethyl)-N-methylacetamide] | 360 | > 30000
CC(=O)N(CC(Nc1ncc(-c2nnc(C(F)F)o2)cn1)c1ccc(F)cc1)CC(F)(F)F (single isomer, unassigned) [167(−), N-(2-((5-(5-(difluoromethyl)-1,3,4-oxadiazol-2-yl)pyrimidin-2-yl)amino)-2-(4-fluorophenyl)ethyl)-N-(2,2,2-trifluoroethyl)acetamide] | 690 | > 30000
O=C(NCC(Nc1ncc(-c2nnc(C(F)F)o2)cn1)c1ccc(F)cc1)C1CC1 (single isomer, unassigned) [168(−), N-(2-((5-(5-(difluoromethyl)-1,3,4-oxadiazol-2-yl)pyrimidin-2-yl)amino)-2-(4-fluorophenyl)ethyl)cyclopropanecarboxamide] | 750 | > 30000
CN(CC(Nc1ncc(-c2nnc(C(F)F)o2)cn1)c1ccc(F)cc1)C(=O)C1CC1 (single isomer, unassigned) [169(−), N-(2-((5-(5-(difluoromethyl)-1,3,4-oxadiazol-2-yl)pyrimidin-2-yl)amino)-2-(4-fluorophenyl)ethyl)-N-methylcyclopropanecarboxamide] | 1100 | > 30000
O=C(C1CC1)N(CC(Nc1ncc(-c2nnc(C(F)F)o2)cn1)c1ccc(F)cc1)CC(F)(F)F (single isomer, unassigned) [170(−), N-(2-((5-(5-(difluoromethyl)-1,3,4-oxadiazol-2-yl)pyrimidin-2-yl)amino)-2-(4-fluorophenyl)ethyl)-N-(2,2,2-trifluoroethyl)cyclopropanecarboxamide] | 1000 | > 30000
CS(=O)(=O)NCC(Nc1ncc(-c2nnc(C(F)F)o2)cn1)c1ccc(F)c(F)c1 (single isomer, unassigned) [171(−), N-(2-((5-(5-(difluoromethyl)-1,3,4-oxadiazol-2-yl)pyrimidin-2-yl)amino)-2-(3,4-difluorophenyl)ethyl)methanesulfonamide] | 590 | > 30000
CS(=O)(=O)N(CC(Nc1ncc(-c2nnc(C(F)F)o2)cn1)c1ccc(F)c(F)c1)CC(F)(F)F (single isomer, unassigned) [172(A), N-(2-((5-(5-(difluoromethyl)-1,3,4-oxadiazol-2-yl)pyrimidin-2-yl)amino)-2-(3,4-difluorophenyl)ethyl)-N-(2,2,2-trifluoroethyl)methanesulfonamide] | 320 | > 30000
CS(=O)(=O)NCC(Nc1ncc(-c2nnc(C(F)F)o2)cn1)c1ccc(Cl)cc1 (single isomer, unassigned) [173(−), N-(2-(4-chlorophenyl)-2-((5-(5-(difluoromethyl)-1,3,4-oxadiazol-2-yl)pyrimidin-2-yl)amino)ethyl)methanesulfonamide] | 490 | > 30000
CS(=O)(=O)N(CC(Nc1ncc(-c2nnc(C(F)F)o2)cn1)c1ccc(Cl)cc1)CC(F)(F)F (single isomer, unassigned) [174(+), N-(2-(4-chlorophenyl)-2-((5-(5-(difluoromethyl)-1,3,4-oxadiazol-2-yl)pyrimidin-2-yl)amino)ethyl)-N-(2,2,2-trifluoroethyl)methanesulfonamide] | 170 | > 30000

Stronger by IC50 (HDAC6), values ahead:

IC50 (HDAC6) [nM] | IC50 (HDAC1) [nM] | Compound
160 | > 30000 | O=S(=O)(C1CC1)N(CC(Nc1ncc(-c2nnc(C(F)F)o2)cn1)c1ccc(F)cc1)CC(F)(F)F (single isomer, unassigned) [165(−), N-(2-((5-(5-(difluoromethyl)-1,3,4-oxadiazol-2-yl)pyrimidin-2-yl)amino)-2-(4-fluorophenyl)ethyl)-N-(2,2,2-trifluoroethyl)cyclopropanesulfonamide]
160 | > 30000 | O=C(C1CC1)N(CC(Nc1ncc(-c2nnc(C(F)F)o2)cn1)c1ccc(F)cc1)CC(F)(F)F (single isomer, unassigned) [170(+), N-(2-((5-(5-(difluoromethyl)-1,3,4-oxadiazol-2-yl)pyrimidin-2-yl)amino)-2-(4-fluorophenyl)ethyl)-N-(2,2,2-trifluoroethyl)cyclopropanecarboxamide]
110 | > 30000 | O=S(=O)(C1CC1)N(CC(Nc1ncc(-c2nnc(C(F)F)o2)cn1)c1ccc(F)cc1)CC(F)(F)F (single isomer, unassigned) [165(+), N-(2-((5-(5-(difluoromethyl)-1,3,4-oxadiazol-2-yl)pyrimidin-2-yl)amino)-2-(4-fluorophenyl)ethyl)-N-(2,2,2-trifluoroethyl)cyclopropanesulfonamide]
110 | > 30000 | CC(=O)N(CC(Nc1ncc(-c2nnc(C(F)F)o2)cn1)c1ccc(F)cc1)CC(F)(F)F (single isomer, unassigned) [167(+), N-(2-((5-(5-(difluoromethyl)-1,3,4-oxadiazol-2-yl)pyrimidin-2-yl)amino)-2-(4-fluorophenyl)ethyl)-N-(2,2,2-trifluoroethyl)acetamide]
110 | > 30000 | CS(=O)(=O)N(CC(Nc1ncc(-c2nnc(C(F)F)o2)cn1)c1ccc(Cl)cc1)CC(F)(F)F (single isomer, unassigned) [174(−), N-(2-(4-chlorophenyl)-2-((5-(5-(difluoromethyl)-1,3,4-oxadiazol-2-yl)pyrimidin-2-yl)amino)ethyl)-N-(2,2,2-trifluoroethyl)methanesulfonamide]
93 | > 30000 | CC(=O)N(C)CC(Nc1ncc(-c2nnc(C(F)F)o2)cn1)c1ccc(F)cc1 (single isomer, unassigned) [166(+), N-(2-((5-(5-(difluoromethyl)-1,3,4-oxadiazol-2-yl)pyrimidin-2-yl)amino)-2-(4-fluorophenyl)ethyl)-N-methylacetamide]
86 | > 30000 | CS(=O)(=O)N(CC(Nc1ncc(-c2nnc(C(F)F)o2)cn1)c1ccc(F)c(F)c1)CC(F)(F)F (single isomer, unassigned) [172(B), N-(2-((5-(5-(difluoromethyl)-1,3,4-oxadiazol-2-yl)pyrimidin-2-yl)amino)-2-(3,4-difluorophenyl)ethyl)-N-(2,2,2-trifluoroethyl)methanesulfonamide]
77 | > 30000 | CN(CC(Nc1ncc(-c2nnc(C(F)F)o2)cn1)c1ccc(F)cc1)C(=O)C1CC1 (single isomer, unassigned) [169(+), N-(2-((5-(5-(difluoromethyl)-1,3,4-oxadiazol-2-yl)pyrimidin-2-yl)amino)-2-(4-fluorophenyl)ethyl)-N-methylcyclopropanecarboxamide]
